In paper PMC11259170, “Small-molecule probe for IBD risk variant GPR65 I231L alters cytokine signaling networks through positive allosteric modulation” (Science Advances, 2024):
Converted amounts (≈) assume the structure as drawn. Read-outs that look alike come from different tables or passages of the source.

How the values were obtained:
[1] = molecular target: T1, hGPR65 (Homo sapiens, UniProt Q8IYL9); assay: cAMP detection in HeLa expression cell line, hGPR65; assay type: cell-based; details: for Emax: HeLa, relative to 100uM forskolin (100%) and DMSO (0%), read-out: hGPR Max Activity %
T1 construct: expressed in transfected cells; host or cells: HeLa (ATCC CCL-2), lentiviral transduction, pLX317
Summary of the method: (§1)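 HeLa cells stably expressing C-terminally V5-tagged receptor (lentiviral transduction, puromycin-selected) were stimulated with compound from a 10 mM DMSO stock for 30 min at RT in stimulation buffer adjusted to pH 7.2, 1500 cells per well. cAMP was read by LANCE Ultra TR-FRET (665/620 nm) after 1 h detection.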

[2] = molecular target: T2, mGPR65 (Mus musculus, UniProt Q61038); assay: cAMP detection in HeLa expression cell line, mGPR65; assay type: cell-based; details: for Emax: HeLa, relative to 100uM forskolin (100%) and DMSO (0%), read-out: mGPR Max Activity %; for EC50: mGPR EC50 (uM)
T2 construct: expressed in transfected cells; host or cells: HeLa (ATCC CCL-2), lentiviral transduction, pLX317
Summary of the method: as §1

[3] = molecular target: T3, hGPR65-SmBiT (Homo sapiens, UniProt Q8IYL9); assay: Nano-BiT target engagement, LgBiT-mGs recruitment to hGPR65-SmBiT in Expi293F cells; assay type: cell-based; details: 10 μM
T3 construct: expressed in transfected cells; host or cells: Expi293F (Gibco), transient transfection
Protocol: (§2) Target engagement was measured in Expi293F (Gibco, 100044202) cells using the Nano-Glo Live Cell Assay System (Promega, N2011). Nano-BiT plasmids were cloned from GPR65-, GPR4-, and GPR68-Tango plasmids. GPR65-Tango (Addgene plasmid # 66370; http://n2t.net/addgene:66370; RRID:Addgene_66370), GPR4-Tango (Addgene plasmid # 66358; http://n2t.net/addgene:66358; RRID:Addgene_66358), and GPR68-Tango (Addgene plasmid # 66371; http://n2t.net/addgene:66371; RRID:Addgene_66371) were gifts from Bryan Roth. Expi293F cells were transfected 1 day before kinetics with 500 ng of each plasmid using ExpiFectamine 293 Transfection Kit (Gibco, A14525). After 24 hours, cells were collected, washed, and resuspended in room temperature 0.1% PBS-BSA, adjusted to pH 7.4 using 1 M NaOH. Cells were transferred to white opaque 96-well microplates (100 μl per well, PerkinElmer, 6005290), followed by addition of the Nano-Glo Live Cell Reagent (25 μl per well). Baseline luminescence was measured for 10 cycles (1 cycle = 90 s) before adding compounds. All luminescence measurements were made on BMG Labtech PHERAstar FSX. Data analysis was performed using GraphPad Prism.

[4] = molecular target: T4, mGPR65-SmBiT (Mus musculus, UniProt Q61038); assay: Nano-BiT target engagement, LgBiT-mGs recruitment to mGPR65-SmBiT; assay type: cell-based; details: 10 μM
T4 construct: expressed in transfected cells; host or cells: Expi293F (Gibco), transient transfection
Protocol: as §2

[5] = molecular target: T5, hGPR4-SmBiT (Homo sapiens, UniProt P46093); assay: Nano-BiT target engagement, LgBiT-mGs recruitment to hGPR4-SmBiT; assay type: cell-based; details: 10 μM
T5 construct: expressed in transfected cells; host or cells: Expi293F (Gibco), transient transfection
Protocol: as §2

[6] = molecular target: T6, hGPR65 I231L-SmBiT (Homo sapiens, UniProt Q8IYL9, I231L); assay: Nano-BiT target engagement, LgBiT-mGs recruitment to hGPR65 I231L-SmBiT; assay type: cell-based; details: 10 μM
T6 construct: expressed in transfected cells; host or cells: Expi293F (Gibco), transient transfection
Protocol: as §2

[7] = system: WT HeLa cells expressing hGPR65; assay: Cytotoxicity assay (CellTiter-Glo, 72 hours); assay type: cell-based, human
Protocol: WT HeLa cells expressing hGPR65 were seeded at 2000 cells per well in 384-well plates. Compounds were tested in 10-point dose, starting at 50 μM. Cells were incubated with compounds for 72 hours at 37°C, 5% CO2. Cytotoxicity was measured using CellTiter-Glo Luminescent Cell Viability Assay (Promega, G7572) according to the manufacturer’s protocol. Luminescence measurements were made on BMG Labtech PHERAstar FSX. Data analysis was performed using GraphPad Prism.

[8] = Solubility in phosphate buffer; assay type: physicochemical; details: read-out: solubility in phosphate buffer
[9] = Lipophilicity (logD); assay type: physicochemical
[10] = 2nd mGPR column pair, NA = no activity

T1 sequence (Q8IYL9 whole entry): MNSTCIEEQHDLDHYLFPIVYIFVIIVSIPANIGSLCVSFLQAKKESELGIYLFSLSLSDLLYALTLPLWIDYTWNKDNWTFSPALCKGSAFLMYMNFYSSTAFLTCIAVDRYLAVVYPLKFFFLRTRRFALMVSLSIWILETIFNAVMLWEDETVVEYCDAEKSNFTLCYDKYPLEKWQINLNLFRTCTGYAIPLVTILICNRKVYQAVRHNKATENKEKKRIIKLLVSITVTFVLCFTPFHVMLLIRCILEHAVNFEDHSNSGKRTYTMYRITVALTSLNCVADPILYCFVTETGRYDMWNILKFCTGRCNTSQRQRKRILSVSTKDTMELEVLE
T2 sequence (Q61038 whole entry): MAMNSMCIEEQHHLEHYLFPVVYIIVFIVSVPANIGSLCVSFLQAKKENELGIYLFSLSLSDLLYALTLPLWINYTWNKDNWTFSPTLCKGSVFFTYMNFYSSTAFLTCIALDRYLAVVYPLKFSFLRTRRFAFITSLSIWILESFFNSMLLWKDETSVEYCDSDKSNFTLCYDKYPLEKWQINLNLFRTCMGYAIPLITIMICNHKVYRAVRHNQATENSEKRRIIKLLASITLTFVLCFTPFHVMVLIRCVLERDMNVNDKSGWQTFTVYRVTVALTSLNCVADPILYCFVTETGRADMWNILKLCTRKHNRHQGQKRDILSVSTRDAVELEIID
T3 sequence (Q8IYL9 whole entry): as the sequence (Q8IYL9 whole entry) above
T4 sequence (Q61038 whole entry): as the sequence (Q61038 whole entry) above
T6 sequence (Q8IYL9 whole entry I231L): as the sequence (Q8IYL9 whole entry) above, with I231L counted along it
T5 sequence (P46093 whole entry): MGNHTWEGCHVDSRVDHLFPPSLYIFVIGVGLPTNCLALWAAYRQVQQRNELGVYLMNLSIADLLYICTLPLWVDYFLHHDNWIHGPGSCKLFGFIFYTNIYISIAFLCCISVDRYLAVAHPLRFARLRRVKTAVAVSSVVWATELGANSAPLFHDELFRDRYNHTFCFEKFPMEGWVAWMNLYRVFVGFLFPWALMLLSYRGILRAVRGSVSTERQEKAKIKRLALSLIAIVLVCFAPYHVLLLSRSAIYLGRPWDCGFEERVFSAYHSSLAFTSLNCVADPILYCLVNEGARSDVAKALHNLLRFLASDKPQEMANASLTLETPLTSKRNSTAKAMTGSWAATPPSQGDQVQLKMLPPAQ

## Cc1ccc(NC(=O)c2cnn3c(O)cc(-c4ccc(COC(C)C)cc4)nc23)c(F)c1 [BRD5080, O=C(NC1=C(F)C=C(C)C=C1)C2=C3N(N=C2)C(O)=CC(C4=CC=C(COC(C)C)C=C4)=N3]
[1]; 0 to 50 μM, pH range of 6.6 to 7.6
  mode of action from pH-dependent cAMP production: PAMs
[1]; 1.56 μM, pH 7.2
  activity for hGPR65 among prioritized molecules: highest activity
[1]; 1st hGPR column pair, NA = no activity
  Emax: 80%
[1]; 2nd hGPR column pair, NA = no activity
  Emax: 70.4%
[1]; hGPR EC50 (uM), NA = no activity
  EC50: 0.856 µM
[1]; hGPR EC50 (uM), pH 7.2, 30 min
  EC50: 1.41 µM
[1]; hGPR EC50, NA = no activity
  EC50: 1.66 µM
[1]; hGPR EC50, pH 7.2, 30 min
  EC50: 1.5 µM
[1]; pH 7.2
  cAMP activity, hGPR65: at least 40%
[2]; 1.56 μM, pH 7.2
  activity for mGPR65 among prioritized molecules: highest activity
[2]; HeLa cells
  cAMP response against mGPR65 among prioritized compounds: highest cAMP response
[2]; [10]
  Emax: 56%
  EC50: 0.371 µM
[2]; NA = no activity
  Emax: 63.5%
  EC50: 0.0578 µM
[2]; first pair of columns, pH 7.2, 30 min
  EC50: 0.432 µM
[2]; second pair of columns, pH 7.2, 30 min
  EC50: 0.653 µM
[2]; pH 7.2
  cAMP activity, mGPR65: at least 40%
[3]
  mGs recruitment / engagement of hGPR65: showed engagement
[3]; HCl or H2O at cycle 10
  activity after HCl versus water, hGPR65: showed activity when preceded by the addition of HCl but not water
[4]
  mGs recruitment / engagement of mGPR65: showed engagement
[4]; HCl or H2O at cycle 10
  activity after HCl versus water, mGPR65: showed activity when preceded by the addition of HCl but not water
[5]
  response in cells expressing hGPR4-SmBiT: failing to elicit responses
[6]
  G protein recruitment in cells expressing hGPR65 I231L: able to recruit G protein
[7]; 50 μM, 72 hours
  cell viability: slight decrease in cell viability
[7]; 72-hour incubation, 0-50 μM
  cytotoxicity: not cytotoxic
[8]
  solubility: 13.6 µM (≈ 5.91 µg/mL)
[9]; pH 7.4, pH7.4, read-out: LogD (pH7.4)
  logD: 3.65
[9]; read-out: lipophilicity (logD)
  logD: 3.62
